The text below walks through data of patent publication US9914910B2, “Methods of preserving and protecting pancreatic beta cells and treating or preventing diabetes by inhibiting NOX-1” (Eastern Virginia Medical School, priority 2013, dated 2018).

Experiment [1] deals with βTC-3 cells. Kind of experiment: ROS measurement (DCF-DA) after PIC. The class given is cell-based, mouse. The settings on record: βTC-3, PIC 1 hour. On the procedure: βTC-3 cells were cultured in DMEM media (Life Technologies, Grand Island, N.Y.) supplemented with 18% fetal calf serum, 1% penicillin/streptomycin, 4 mM L-glutamine, 5.5 mM glucose, and 1 mM sodium pyruvate at 370 C with 5% CO2.
Cells treated for 1 hour were then washed with PBS prior to addition of 10 μM 6-Carboxy-2′,7′-Dichlorodihydrofluorescein Diacetate, Di(Acetoxymethyl ester) (DCF-DA, Life Technologies) for 30 min at 370 C. Post PBS wash cells were incubated at 370 C for 1 hour. Prior to fluorescence measurement (SpectraMax Molecular Devices, Sunnyvale, Calif.) at excitation 480 nm: emission 530 nm.
Elevation of cellular ROS in beta-cell lines INS-1 (rat beta-cell line) and βTC-3 (mouse beta-cell line) was evaluated by conversion of fluorescent substrate DCF-DA. Following one hour stimulation with a pro-inflammatory cytokine cocktail (PIC; IL-1β, TNF-α, and IFN-γ) detectable ROS elevated from control levels of 0.05±0.02 and 0.09±0.03 (INS-1 and βTC-3 respectively) to 0.25±0.04 and 0.23±0.03 (INS-1 and βTC-3 respectively). This increase was significant p<0.05 and p<0.01 (INS-1 and βTC-3 respectively).

For experiment [2], the system named is primary mouse islets. Kind of experiment: Apoptosis by YO-PRO-1 fluorescence microscopy after PIC. The experiment is classed as cell-based. As for the experimental part:
(§1) Human donor islets were obtained from integrated islet distribution project (http://iidp.coh.org) and cultured in CMRL media (Mediatech, Manassas, Va.). Mouse islets were freshly isolated from 8-week old male C57BL/6J mice (Jackson Laboratory, Bar Harbor, Me.) by common bile duct cannulation and collagenase digestion. Islets were hand picked prior to use.
B. Fluorescence microscopy: Stimulated cells or islets were washed in cold PBS, and incubated for 30 mins at 40 C with cold PBS containing 1 μg/mL propidium iodide and 0.1 μM YO-PRO-1 (Life Technologies). For cell lines, five randomly fields per well were analyzed. For islets, all islets (>1000 um2 in size) were analyzed. Densitometric fluorescent value for YO-PRO-1 (green channel) was normalized to background and expressed proportional to cell occupied area (phase contrast). Images captured across three channels with Axiophot (Zeiss, Jena, Germany) with Axiovision (Zeiss) image analysis.
FIG. 1: Treatment of primary mouse islets with inflammatory cytokines (TNFα, IL-1β, IFNγ) induces islet/beta cell death (apoptosis) which can be measured in a fluorescent-based assay (green signal) using YO-PRO-1. […] The degree of cell death can be quantified by measuring the green signal. The graph is a quantitative analysis of multiple (≧4 visual fields in replicate wells). The detected relative fluorescent units (RFU) are plotted. […]

The subject of experiment [3] is NOX-1 gene expression in primary human donor islets. Kind of experiment: PIC-induced NOX-1 gene expression (RT-PCR). The settings on record: 1 μM ML171. The experiment is classed as cell-based. On the procedure: Total RNA was isolated using the RNeasy Mini Kit (Qiagen, Valencia, Calif.) and cDNA prepared using MMLV reverse transcriptase (Life Technologies) and random hexamers (Life Technologies). Jump Start Taq polymerase (Life Technologies) was used in PCR reactions. […] RT-PCR reactions were performed in triplicate (CFX96 Bio-Rad, Hercules, Calif.). Taqman primers (Life Technologies) were also used. Data was normalized to the housekeeping gene GAPDH and analyzed using the 2-ΔΔCT method.

Experiment [4] deals with NOX-1 protein in piglet islets. Description: PIC-induced NOX-1 protein in piglet islets. The experiment is classed as cell-based. The settings on record: 1 μM, 18 hours. On the procedure: The methods disclosed herein may also be utilized in the preparation of viable xenotransplantable porcine islets and/or the treatment of a mammalian patient (including humans) suffering from diabetes involving the transplantation into the mammal of viable porcine islets capable of producing insulin within the host. Piglet islets are candidates for xenotransplantation of piglet islets with cytokines (PIC; TNF, IL-1, IFN) induced expression of NOX-1 protein. […] Islets were treated for 18 hours. Data supports feedforward regulation of NOX-1 expression and effective uncoupling of this pathway in piglet islets by inhibition of NOX-1 activity.

For experiment [5], the system named is βTC-3 cells. Description: Glucose-stimulated insulin secretion (GSIS) after PIC. The class given is cell-based, mouse. The settings on record: βTC-3, 1 mM vs 16 mM glucose, p<0.01. As for the experimental part:
(§2) Treated islets or cells then were washed with PBS and placed in 1 mL serum-free Kreb-Ringer buffer (115 mM NaCl, 24 mM NaHCO3, 5 mM KCl, 1 mM MgCl2, and 25 mM HEPES) for 1 hour at 370 C. Low (1 mM) or high (16 mM) glucose was added for […] for 30 min. Insulin levels in media were measured by ELISA (Mercodia, Winston Salem, N.C.) as per the manufacturer's instructions.

In experiment [6] the test system is primary mouse islets. Described as above. The conditions noted are these: 10 μM ML171, 1 mM vs 16 mM glucose. The class given is cell-based. As for the experimental part: as §1, §2
A further experiment concerns the target T1, NOX-1 (Homo sapiens, UniProt Q9Y5S8).
T1 sequence (Q9Y5S8 1-564): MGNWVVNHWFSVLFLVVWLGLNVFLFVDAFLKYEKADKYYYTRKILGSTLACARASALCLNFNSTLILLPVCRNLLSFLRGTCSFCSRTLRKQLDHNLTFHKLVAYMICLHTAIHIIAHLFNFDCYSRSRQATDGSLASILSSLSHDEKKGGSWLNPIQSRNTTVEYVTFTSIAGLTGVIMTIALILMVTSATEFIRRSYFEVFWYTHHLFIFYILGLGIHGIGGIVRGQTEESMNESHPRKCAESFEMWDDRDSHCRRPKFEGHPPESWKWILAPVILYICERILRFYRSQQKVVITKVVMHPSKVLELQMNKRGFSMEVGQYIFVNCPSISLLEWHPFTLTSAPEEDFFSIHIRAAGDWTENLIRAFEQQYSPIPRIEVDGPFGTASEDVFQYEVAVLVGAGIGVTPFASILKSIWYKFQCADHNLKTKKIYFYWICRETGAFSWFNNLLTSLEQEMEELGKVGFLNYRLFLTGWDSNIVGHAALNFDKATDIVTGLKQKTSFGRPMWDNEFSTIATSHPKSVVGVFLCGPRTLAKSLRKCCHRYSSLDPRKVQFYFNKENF
T1 sequence (P13498 1-195 partner): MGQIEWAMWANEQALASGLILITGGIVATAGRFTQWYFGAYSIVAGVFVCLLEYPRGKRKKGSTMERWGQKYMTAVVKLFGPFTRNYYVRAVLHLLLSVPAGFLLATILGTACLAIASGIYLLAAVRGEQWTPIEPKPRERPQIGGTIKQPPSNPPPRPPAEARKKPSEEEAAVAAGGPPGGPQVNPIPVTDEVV
The settings on record: cited from earlier work.

A further experiment concerns human colon cancer cells. The settings on record: cited from earlier work.

`CC(=O)c1ccc2c(c1)Nc1ccccc1S2` [ML171, 2-acetylphenothiazine]: the “inhibition of PIC-induced ROS (DCFDA conversion)” value in the experiment on βTC-3 cells [1] is listed as “dose dependent inhibition”. The “cytokine induced cell death (YO-PRO-1 RFU)” value in the experiment with primary mouse islets [2] (1 μM, p<0.05) is recorded as “protected islets from cytokine induced cell death”. For the same compound, the “reduction of PIC induced islet apoptosis” value in the experiment with primary mouse islets [2] (10 μM, 24 hours) is reported as 86%±4%. For the same compound, the “inhibition of PIC-induced expression of NOX-1” value in experiment [3] was 50%. Besides, the “PIC-induced NOX-1 protein” value in experiment [4] is “reduces PIC-induced NOX-1 protein”. Also, in the experiment with βTC-3 cells [5], the “glucose-stimulated insulin secretion with PIC” value is given as “restoring the glucose-sensitive insulin response”. Besides, the “glucose stimulated insulin response with PIC” value in the experiment on primary mouse islets [6] is reported as “partially restored”. Also, on NOX-1, the “inhibition of NOX-1 (in words)” value is recorded as “nanomolar inhibitor”; the “specificity for NOX-1 inhibition over NOX-2 inhibition and other NOX isoforms” value is given as “greater than 30 fold”. The “NOX-1 activity in human colon cancer cells” value in the experiment on human colon cancer cells is on record as “inhibits NOX-1 activity”.
